Broadly, the IC50 is the concentration that inhibits the measured activity by half.

In this experiment the target is rat PDE10 enzyme (Rattus norvegicus (Rat), UniProt Q9QYJ6). As to the kind of experiment: PDE10 scintillation proximity assay (SPA), inhibition of rat PDE10 enzyme activity. It is filed as biochemical. The note with it: geometric mean of 2-4 determinations unless otherwise indicated (b: ≧5 determinations; c: single determination). In a few lines: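 SPA with fixed recombinant PDE10 (Sf21-expressed, Ni-NTA and Mono Q purified) converting ~20% of 20 nM ³H-cAMP in 50 mM TRIS pH 7.5, 1.3 mM MgCl2, 0.01% Brij, across an inhibitor range.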
rat PDE10 enzyme, sequence (Q9QYJ6 24-794): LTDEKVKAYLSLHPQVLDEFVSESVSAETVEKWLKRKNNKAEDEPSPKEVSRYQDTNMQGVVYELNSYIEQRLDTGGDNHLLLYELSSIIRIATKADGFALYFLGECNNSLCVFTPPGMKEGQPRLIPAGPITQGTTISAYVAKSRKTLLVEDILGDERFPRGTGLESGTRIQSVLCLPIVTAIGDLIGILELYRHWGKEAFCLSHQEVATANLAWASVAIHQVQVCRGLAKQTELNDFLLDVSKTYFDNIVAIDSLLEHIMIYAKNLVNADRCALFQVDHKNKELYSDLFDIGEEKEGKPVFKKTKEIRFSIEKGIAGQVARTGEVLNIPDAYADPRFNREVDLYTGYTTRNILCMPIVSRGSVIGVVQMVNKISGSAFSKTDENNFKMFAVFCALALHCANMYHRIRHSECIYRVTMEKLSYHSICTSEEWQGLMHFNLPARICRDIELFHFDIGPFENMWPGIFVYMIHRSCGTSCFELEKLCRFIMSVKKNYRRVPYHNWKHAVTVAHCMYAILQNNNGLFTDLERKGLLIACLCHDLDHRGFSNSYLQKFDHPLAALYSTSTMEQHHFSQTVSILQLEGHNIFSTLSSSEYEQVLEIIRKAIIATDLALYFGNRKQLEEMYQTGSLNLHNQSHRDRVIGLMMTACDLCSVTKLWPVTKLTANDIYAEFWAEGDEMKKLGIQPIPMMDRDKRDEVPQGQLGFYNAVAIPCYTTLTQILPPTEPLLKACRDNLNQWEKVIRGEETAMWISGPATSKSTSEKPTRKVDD
In general terms: Scintillation proximity formats need no separation of bound from free tracer.

In turn, `Cc1nc(-c2ccccc2F)c2c(N3CCc4ncnc(O)c4C3)ncnn12` [Example 172, 6-[5-(2-fluorophenyl)-7-methylimidazo[5,1-f][1,2,4]triazin-4-yl]-5,6,7,8-tetrahydropyrido[4,3-d]pyrimidin-4-ol] came in with a half-inhibitory concentration (IC50) of 11.3 nM.
Take `Cc1nc([C@H]2CCOC2)c2c(N3CCc4c(cnn4C4CC4)C3)ncnn12` [Example 98, 4-(1-cyclopropyl-1,4,6,7-tetrahydro-5H-pyrazolo[4,3-c]pyridin-5-yl)-7-methyl-5-[(3R)-tetrahydrofuran-3-yl]imidazo[5,1-f][1,2,4]triazine]: the midpoint of inhibition, the IC50, lay at 11.6 nM.
Regarding `COc1cc2c(cc1OC)CN(c1ncnn3c(C)nc(C4CCCO4)c13)CC2` (stereo not drawn) [Example 77, 6,7-dimethoxy-2-[7-methyl-5-(tetrahydrofuran-2-yl)imidazo[5,1-f][1,2,4]triazin-4-yl]-1,2,3,4-tetrahydroisoquinoline], the concentration for half-maximal inhibition (IC50) amounted to 30 nM.
In the case of `Cc1nc([C@H]2CCOC2)c2c(N3CCc4nc(C5CC5)ncc4C3)ncnn12` [Example 56, 2-cyclopropyl-6-{7-methyl-5-[(3R)-tetrahydrofuran-3-yl]imidazo[5,1-f][1,2,4]triazin-4-yl}-5,6,7,8-tetrahydropyrido[4,3-d]pyrimidine] it was 5.34 nM.
In the case of `Cc1nc(-c2ccccc2F)c2c(N3CCc4c(O)nc(C5CCCC5)nc4C3)ncnn12` [Example 160, 2-cyclopentyl-7-[5-(2-fluorophenyl)-7-methylimidazo[5,1-f][1,2,4]triazin-4-yl]-5,6,7,8-tetrahydropyrido[3,4-d]pyrimidin-4-ol], the IC50 stood at 3.76 nM.
For `CNc1ccc2c(n1)CCN(c1ncnn3c(C)nc(-c4ccccc4F)c13)C2` [Example 153, 6-[5-(2-fluorophenyl)-7-methylimidazo[5,1-f][1,2,4]triazin-4-yl]-N-methyl-5,6,7,8-tetrahydro-1,6-naphthyridin-2-amine], half-maximal inhibition (IC50) required 0.436 nM.
The figure for `Cc1nc([C@H]2CCOC2)c2c(N3CCc4nn(C(C)C)cc4C3)ncnn12` [Example 100, 7-methyl-4-[2-(propan-2-yl)-2,4,6,7-tetrahydro-5H-pyrazolo[4,3-c]pyridin-5-yl]-5-[(3R)-tetrahydrofuran-3-yl]imidazo[5,1-f][1,2,4]triazine] is 23 nM.
Molecule `Cc1nc([C@H]2CCCO2)c2c(N3CCc4nc(C5CC5)ncc4C3)ncnn12` [Example 79] returned an IC50 of 11.2 nM.
In the case of `COc1ccc2c(c1OC)CN(c1ncnn3c(C)nc(C4CCOCC4)c13)CC2` [Example 60, 7,8-dimethoxy-2-[7-methyl-5-(tetrahydro-2H-pyran-4-yl)imidazo[5,1-f][1,2,4]triazin-4-yl]-1,2,3,4-tetrahydroisoquinoline] it was 1.35 nM; in that of `Cc1nc(CC(C)C)c2c(N3CCc4ncccc4C3)ncnn12` [Example 97, 6-[7-methyl-5-(2-methylpropyl)imidazo[5,1-f][1,2,4]triazin-4-yl]-5,6,7,8-tetrahydro-1,6-naphthyridine], 9.05 nM; in that of `COc1ccc2c(c1)CCN(c1ncnn3c(C)nc([C@H]4CCOC4)c13)C2` [Example 87, 6-methoxy-2-{7-methyl-5-[(3R)-tetrahydrofuran-3-yl]imidazo[5,1-f][1,2,4]triazin-4-yl}-1,2,3,4-tetrahydroisoquinoline], 1.26 nM.
Turning to `CCc1n[nH]c2c1CN(c1ncnn3c(C)nc(C4CCOCC4)c13)CC2` [Example 107, 4-(3-ethyl-1,4,6,7-tetrahydro-5H-pyrazolo[4,3-c]pyridin-5-yl)-7-methyl-5-(tetrahydro-2H-pyran-4-yl)imidazo[5,1-f][1,2,4]triazine], the IC50 came out at 0.959 nM.
Turning to `COc1cc2c(cc1OC)CN(c1ncnn3c(C)nc(-c4ccccc4C)c13)CC2` [Example 62, 6,7-dimethoxy-2-[7-methyl-5-(2-methylphenyl)imidazo[5,1-f][1,2,4]triazin-4-yl]-1,2,3,4-tetrahydroisoquinoline], the midpoint of inhibition, the IC50, lay at 3.87 nM.
For `Cc1noc2c1CN(c1ncnn3c(C)nc([C@@H]4CCOC4)c13)CC2` [Example 34, 7-methyl-4-(3-methyl-6,7-dihydro[1,2]oxazolo[4,5-c]pyridin-5(4H)-yl)-5-[(3S)-tetrahydrofuran-3-yl]imidazo[5,1-f][1,2,4]triazine], half-maximal inhibition (IC50) required 16.5 nM.
In the case of `COc1nc(C2CC2)nc2c1CN(c1ncnn3c(C)nc([C@@H]4CCOC4)c13)CC2` [Example 39, 2-cyclopropyl-4-methoxy-6-{7-methyl-5-[(3S)-tetrahydrofuran-3-yl]imidazo[5,1-f][1,2,4]triazin-4-yl}-5,6,7,8-tetrahydropyrido[4,3-d]pyrimidine] it was 0.193 nM; in that of `COc1cc2c(cc1OC)CN(c1ncnn3c(C)nc([C@H]4CCOC4)c13)CC2` [Example 14, 6,7-dimethoxy-2-{7-methyl-5-[(3R)-tetrahydrofuran-3-yl]imidazo[5,1-f][1,2,4]triazin-4-yl}-1,2,3,4-tetrahydroisoquinoline], 1.62 nM.
`CCn1c(C)nc2c(c1=O)CN(c1ncnn3c(C)nc(-c4ccccc4F)c13)CC2` [Example 126, 3-ethyl-6-[5-(2-fluorophenyl)-7-methylimidazo[5,1-f][1,2,4]triazin-4-yl]-2-methyl-5,6,7,8-tetrahydropyrido[4,3-d]pyrimidin-4(3H)-one] displayed an IC50 of 1.19 nM.
Consider `CCOc1nc(C2CC2)nc2c1CN(c1ncnn3c(C)nc(-c4ccccc4F)c13)CC2` [Example 147, 2-cyclopropyl-4-ethoxy-6-[5-(2-fluorophenyl)-7-methylimidazo[5,1-f][1,2,4]triazin-4-yl]-5,6,7,8-tetrahydropyrido[4,3-d]pyrimidine], for which the IC50 came to 9.98 nM.
`Cc1nc(C2CCCO2)c2c(N3CCc4c(c(C(C)C)nn4C)C3)ncnn12` (stereo not drawn) [Example 45, 4-(3-isopropyl-1-methyl-1,4,6,7-tetrahydro-5H-pyrazolo[4,3-c]pyridin-5-yl)-7-methyl-5-(tetrahydrofuran-2-yl)imidazo[5,1-f][1,2,4]triazine] had an IC50 of 3.84 nM.
In the case of `Cc1nc(-c2ccc(F)cc2Cl)c2c(N3CCc4cnn(C)c4C3)ncnn12` [Example 122, 5-(2-chloro-4-fluorophenyl)-7-methyl-4-(1-methyl-1,4,5,7-tetrahydro-6H-pyrazolo[3,4-c]pyridin-6-yl)imidazo[5,1-f][1,2,4]triazine] it was 2.65 nM; in that of `Cc1nc([C@H]2CCOC2)c2c(N3CCc4nn(C5CC5)cc4C3)ncnn12` [Example 26, 4-(2-cyclopropyl-2,4,6,7-tetrahydro-5H-pyrazolo[4,3-c]pyridin-5-yl)-7-methyl-5-[(3R)-tetrahydrofuran-3-yl]imidazo[5,1-f][1,2,4]triazine], less than 2.26 nM; in that of `CCc1nn(C)c2c1CN(c1ncnn3c(C)nc(-c4ccccc4F)c13)CC2` [Example 117], 0.336 nM.
The figure for `Cc1cccc2c1CN(c1ncnn3c(C)nc([C@@H]4CCOC4)c13)CC2` [Example 155, 8-methyl-2-{7-methyl-5-[(3S)-tetrahydrofuran-3-yl]imidazo[5,1-f][1,2,4]triazin-4-yl}-1,2,3,4-tetrahydroisoquinoline] is 0.171 nM; for `Cc1onc2c1CN(c1ncnn3c(C)nc([C@@H]4CCOC4)c13)CC2` [Example 33, 7-methyl-4-(3-methyl-6,7-dihydro[1,2]oxazolo[4,3-c]pyridin-5(4H)-yl)-5-[(3S)-tetrahydrofuran-3-yl]imidazo[5,1-f][1,2,4]triazine] it is 23.3 nM; for `Cc1nc([C@H]2CCOC2)c2c(N3CCc4cc(Cl)c(Cl)cc4C3)ncnn12` [Example 51, 6,7-dichloro-2-{7-methyl-5-[(3R)-tetrahydrofuran-3-yl]imidazo[5,1-f][1,2,4]triazin-4-yl}-1,2,3,4-tetrahydroisoquinoline] it is 13.5 nM.
The figure for `Cc1ccccc1-c1nc(C)n2ncnc(N3CCc4c(c(C(C)C)nn4C)C3)c12` [Example 10, 4-(3-Isopropyl-1-methyl-1,4,6,7-tetrahydro-5H-pyrazolo[4,3-c]pyridin-5-yl)-7-methyl-5-(2-methylphenyl)imidazo[5,1-f][1,2,4]triazine] is 0.56 nM; for `CCc1nn(C)c2c1CN(c1ncnn3c(C)nc(CC(C)C)c13)CC2` [Example 48, 4-(3-ethyl-1-methyl-1,4,6,7-tetrahydro-5H-pyrazolo[4,3-c]pyridin-5-yl)-5-isobutyl-7-methylimidazo[5,1-f][1,2,4]triazine] it is less than 1 nM.
`CCc1c2c(nn1C)CCN(c1ncnn3c(C)nc(-c4ccccc4F)c13)C2` [Example 112, 4(3-ethyl-2-methyl-2,4,6,7-tetrahydro-5H-pyrazolo[4,3-c]pyridin-5-yl)-5-(2-fluorophenyl)-7-methylimidazo[5,1-f][1,2,4]triazine] yielded an IC50 of 0.147 nM.
The figure for `Cc1nc(-c2ccccc2F)c2c(N3Cc4ccccc4CC3C)ncnn12` (stereo not drawn) [Example 116, 2-[5-(2-fluorophenyl)-7-methylimidazo[5,1-f][1,2,4]triazin-4-yl]-3-methyl-1,2,3,4-tetrahydroisoquinoline] is 8.01 nM; for `Cc1nc([C@H]2CCOC2)c2c(N3CCc4ncncc4C3)ncnn12` [Example 63, 6-{7-methyl-5-[(3R)-tetrahydrofuran-3-yl]imidazo[5,1-f][1,2,4]triazin-4-yl}-5,6,7,8-tetrahydropyrido[4,3-d]pyrimidine] it is 133 nM; for `Cc1nn(C)c2c1CN(c1ncnn3c(C)nc(C4CCOCC4)c13)CC2` [Example 103, 4-(1,3-dimethyl-1,4,6,7-tetrahydro-5H-pyrazolo[4,3-c]pyridin-5-yl)-7-methyl-5-(tetrahydro-2H-pyran-4-yl)imidazo[5,1-f][1,2,4]triazine] it is 5.13 nM.
Molecule `Cc1nc(-c2ccc(F)cc2Cl)c2c(N3CCc4nc(C5CC5)ncc4C3)ncnn12` [Example 7, 6-[5-(2-Chloro-4-fluorophenyl)-7-methylimidazo[5,1-f][1,2,4]triazin-4-yl]-2-cyclopropyl-5,6,7,8-tetrahydropyrido[4,3-d]pyrimidine] registered an IC50 of 8.44 nM.
In the case of `Cc1nc2c(s1)CN(c1ncnn3c(C)nc([C@H]4CCCO4)c13)CC2` [Example 81] it was 9.73 nM.

Values taken from US8933224B2, “Triazine derivatives” (Pfizer Inc., priority 2013, dated 2015).
